This note sets out measurements from US11285147B2, “Neuroprotective agents for treatment of neurodegenerative diseases” (WAYNE STATE UNIVERSITY, priority 2018, dated 2022).

Test [1] addresses T1, Aβ1-42 peptide (Homo sapiens, UniProt P05067).
T1 construct: disaggregation activity of Aβ1-42 peptide
Put plainly: Inhibition of Aβ1-42 aggregation, ThT fluorescence. The class given is biochemical. To be noted: Aβ1-42 10 μM, test compounds 20 μM, 24 h. Here is the method: (§1) FIGS. 3A and 3B. Inhibition and dissociation of Aβ1-42 oligomer formation by: a) ThT fluorescence of Aβ1-42 (10 μM) with or without incubation with test compounds (20 μM) for 24 h. The ThT fluorescence of Aβ1-42 at 0 h was taken as 100%. b) Aβ1-42 fibrils (10 μM) were incubated with test compounds (20 μM) for a period of 24 h. The ThT fluorescence of Aβ1-42 aggregates at 0 h was considered as 100%
(§2) FIGS. 3A and 3B show inhibition and dissociation of Aβ1-42 oligomer formation by: a) ThT fluorescence of Aβ1-42 (10 μM) with or without incubation with test compounds (20 μM) for 24 h. The ThT fluorescence of Aβ1-42 at 0 h was taken as 100%. b) Aβ1-42 fibrils (10 μM) were incubated with test compounds (20 μM) for a period of 24 h. The ThT fluorescence of Aβ1-42 aggregates at 0 h was considered as 100%
(§3) Similar to the effect of the drugs on α-syn, interaction of compounds with Aβ1-42 peptide clearly indicated a significant effect in inhibiting aggregation in a time dependent manner as indicated by decrease in ThT activity (FIG. 3a). Similarly, test compounds were able to decrease ThT activity of preformed Aβ aggregates in a time dependent manner, reflecting its effect in disrupting structure of aggregates (FIG. 3b). On the other hand, incubation of aggregates itself led to a gradual increase in ThT activity (FIG. 3b).

Test [2] has as its target αSN (alpha synuclein) (Homo sapiens, UniProt P37840). Put plainly: Inhibition of αSN fibrillization, ThT fluorescence assay. The class given is biochemical. Here is the method:
FIGS. 2A-B. (A) Inhibition of aSN fibrillization by D-687 and D-688. The drugs were incubated with aSN over a period of six days and the fibrilization was measured by ThT fluorescence assay. Data Values shown are means±SEMs of three independent experiments. (B) PC12 cells were treated with 10 μM prefabricated aSN aggregates formed in presence of drugs collected at day 0 and day 6. Values shown are means±SEMs of three independent experiments performed in 4-6 replicates. One way ANOVA analysis followed by Tukey's Multiple Comparison post hoc test were performed. (*p<0.01 compared to the control).
We assessed the ability of our compounds, D-687 and D-688, to alter aggregation and cytotoxicity after co-incubating αSN with these drugs for 6 days followed by evaluation of ThT fluorescence activity and cell viability experiment with the PC12 cells. […] In order to maintain identical condition, cellular viability was determined by using samples from various experiments diluted to maintain a final concentration of 10 μM of αSN and 20 μM of drugs.
FIG. 2 provides (A) Inhibition of aSN fibrillization by D-687 and D-688. The drugs were incubated with aSN over a period of six days and the fibrilization was measured by ThT fluorescence assay. Data Values shown are means±SEMs of three independent experiments. […]

Test [3] has as its target T2, Aβ1-42 fibrils (Homo sapiens, UniProt P05067).
T2 construct: disaggregation activity of Aβ1-42 peptide
Put plainly: Dissociation of preformed Aβ1-42 aggregates, ThT fluorescence. The format is biochemical. The following applies: Aβ1-42 fibrils 10 μM, test compounds 20 μM, 24 h. How it is done: as §1, §2, §3

The target in test [4] is D3 receptor (UniProt P19020). The class given is binding. To be noted: read-out: Ki (nM) D3, [3H]spiroperidol; cloned D3 in HEK-293 cells; mean ± SEM of 3-6 experiments.
Test [5] addresses D2L receptor (Rattus norvegicus, UniProt P61169). The test is described as follows: biochemical.

T1 sequence (P05067 672-713 limits assumed): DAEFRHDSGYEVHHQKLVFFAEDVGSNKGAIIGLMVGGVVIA
T2 sequence (P05067 672-713 limits assumed): as above
Chain of D2L receptor (P61169 whole entry): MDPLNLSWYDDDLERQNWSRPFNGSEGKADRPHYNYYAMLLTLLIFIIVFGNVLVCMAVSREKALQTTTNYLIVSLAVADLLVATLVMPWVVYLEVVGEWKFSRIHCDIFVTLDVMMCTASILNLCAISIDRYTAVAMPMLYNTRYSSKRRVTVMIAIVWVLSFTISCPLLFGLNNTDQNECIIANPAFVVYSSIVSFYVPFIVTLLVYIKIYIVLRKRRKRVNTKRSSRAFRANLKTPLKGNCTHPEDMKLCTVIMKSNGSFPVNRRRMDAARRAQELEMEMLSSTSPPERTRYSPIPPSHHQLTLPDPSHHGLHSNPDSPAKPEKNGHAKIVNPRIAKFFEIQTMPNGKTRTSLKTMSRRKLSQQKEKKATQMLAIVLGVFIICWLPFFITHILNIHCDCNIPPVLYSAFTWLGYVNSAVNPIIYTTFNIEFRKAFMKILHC

As for `CCN(CC)CCN1CCN(c2ccc(-c3ccc(O)c(O)c3)cc2)CC1` [Compound D690, 4′-[4-(2-Diethylamino-ethyl)-piperazin-1-yl]-biphenyl-3,4-diol], the “Inhibition of aggregation of Aβ1-42 peptide” value in test [1] is given as “potently inhibited aggregation”. In addition, the “Inhibition of aggregation of aSN protein (overall conclusion)” value in test [2] is listed as “potently inhibited aggregation”. In addition, the “Disaggregation of preformed Aβ1-42 aggregates” value in test [3] is on record as “disaggregate”.

Turning to “4′-[4-(2-Diisopropylamino-ethyl)-piperazin-1-yl]-biphenyl-3,4-diol [Compound D-687]”, the “Inhibition of aggregation of Aβ1-42 peptide” value in test [1] was “potently inhibited aggregation”. Besides, the “Inhibition of aggregation of aSN protein (overall conclusion)” value in test [2] was “potently inhibited aggregation”. Also, the “Disaggregation of preformed Aβ1-42 aggregates” value in test [3] is recorded as “disaggregate”.

The Ki is the equilibrium dissociation constant of an inhibitor or competing ligand from its target. Consider `CCCN(CCc1cc(O)c(CCN(CCC)[C@H]2CCc3nc(N)sc3C2)cc1O)[C@H]1CCc2nc(N)sc2C1` [12 (D-673), 2,5-bis(2-(((S)-2-amino-4,5,6,7-tetrahydrobenzo[d]thiazol-6-yl)(propyl)amino)-ethyl)benzene-1,4-diol], for which the Ki in test [4] turned out to be 6.87 ± 0.11 nM; in test [5], 54.7 ± 3.3 nM.
